Our source for the Ki values is patent publication US7951824B2, “4-aryl-pyridine-2-carboxyamide derivatives” (Hoffman-La Roche Inc., priority 2006, dated 2011).

pKi: −log10 of the molar value.

The target in the first assay is T1, human mGlu 5a receptor (Homo sapiens, UniProt P41594).
T1 construct: expressed in transfected cells; host or cells: EBNA cells (transient transfection), membrane homogenates
T1 sequence (P41594 21-1180 isoform P41594-2 limits assumed): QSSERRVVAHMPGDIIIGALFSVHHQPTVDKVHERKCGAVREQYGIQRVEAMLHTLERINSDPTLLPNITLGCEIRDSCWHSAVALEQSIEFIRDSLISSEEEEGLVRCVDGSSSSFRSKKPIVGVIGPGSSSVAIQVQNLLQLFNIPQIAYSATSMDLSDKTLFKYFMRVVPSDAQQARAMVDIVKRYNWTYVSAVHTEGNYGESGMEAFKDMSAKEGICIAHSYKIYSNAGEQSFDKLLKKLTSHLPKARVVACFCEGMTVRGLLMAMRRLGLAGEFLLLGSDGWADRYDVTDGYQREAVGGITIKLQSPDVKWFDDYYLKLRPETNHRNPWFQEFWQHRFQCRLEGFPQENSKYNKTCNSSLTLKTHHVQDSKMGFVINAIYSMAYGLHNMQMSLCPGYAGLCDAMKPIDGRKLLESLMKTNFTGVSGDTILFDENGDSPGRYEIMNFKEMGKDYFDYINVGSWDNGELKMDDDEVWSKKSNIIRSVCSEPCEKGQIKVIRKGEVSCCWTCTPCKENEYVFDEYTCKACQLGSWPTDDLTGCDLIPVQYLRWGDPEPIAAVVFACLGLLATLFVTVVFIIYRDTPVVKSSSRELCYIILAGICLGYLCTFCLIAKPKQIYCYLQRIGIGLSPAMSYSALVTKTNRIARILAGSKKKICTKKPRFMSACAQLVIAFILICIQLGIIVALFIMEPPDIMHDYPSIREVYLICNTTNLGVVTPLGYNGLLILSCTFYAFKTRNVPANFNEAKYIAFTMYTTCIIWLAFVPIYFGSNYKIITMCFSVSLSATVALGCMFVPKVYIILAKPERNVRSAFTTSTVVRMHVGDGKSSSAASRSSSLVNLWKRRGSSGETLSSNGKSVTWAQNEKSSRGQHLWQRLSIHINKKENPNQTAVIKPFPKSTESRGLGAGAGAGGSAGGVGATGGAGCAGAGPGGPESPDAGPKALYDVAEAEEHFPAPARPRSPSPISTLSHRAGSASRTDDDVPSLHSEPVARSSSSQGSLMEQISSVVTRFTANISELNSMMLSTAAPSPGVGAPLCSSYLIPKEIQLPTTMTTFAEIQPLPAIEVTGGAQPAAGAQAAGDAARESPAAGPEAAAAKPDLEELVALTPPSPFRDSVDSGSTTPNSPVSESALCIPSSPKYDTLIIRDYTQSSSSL
Briefly: [3H]MPEP competition binding on membranes of EBNA cells transfected with human mGlu 5a receptor. As to conditions: competition with [3H]MPEP (2 nM), 1 h at 4° C., EBNA cell membranes. On the procedure: The pharmacological activity of the compounds was tested using the following method: For binding experiments, cDNA encoding human mGlu 5a receptor was transiently transfected into EBNA cells using a procedure described by Schlaeger and Christensen [Cytotechnology 15:1-13 (1998)]. Cell membrane homogenates were stored at −80° C. until the day of assay where upon they were thawed and resuspended and polytronised in 15 mM Tris-HCl, 120 mM NaCl, 100 mM KCl, 25 mM CaCl2, 25 mM MgCl2 binding buffer at pH 7.4 to a final assay concentration of 20 μg protein/well.
Saturation isotherms were determined by addition of twelve [^3H] MPEP concentrations (0.04-100 nM) to these membranes (in a total volume of 200 μd) for 1 h at 4° C. Competition experiments were performed with a fixed concentration of [^3H]MPEP (2 nM) and IC50 values of test compounds evaluated using 11 concentrations (0.3-10,000 nM). Incubations were performed for 1 h at 4° C.
At the end of the incubation, membranes were filtered onto unifilter (96-well white microplate with bonded GF/C filter preincubated 1 h in 0.1% PEI in wash buffer, Packard Bio-Science, Meriden, Conn.) with a Filtermate 96 harvester (Packard BioScience) and washed 3 times with cold 50 mM Tris-HCl, pH 7.4 buffer. Nonspecific binding was measured in the presence of 10 μM MPEP. The radioactivity on the filter was counted (3 min) on a Packard Top-count microplate scintillation counter with quenching correction after addition of 45 μl of microscint 40 (Canberra Packard S. A., Zürich, Switzerland) and shaking for 20 min.
For binding experiments the Ki values of the compounds tested are given. The Ki value is defined by the following formula: KiIC50/[1+L/Kd] in which the IC50 values are those concentrations of the compounds tested which cause 50% inhibition of the competing radioligand ([^3H]MPEP). L is the concentration of radioligand used in the binding experiment and the Kd value of the radioligand is empirically determined for each batch of membranes prepared.
For `Cc1cc(-c2cncc(C(F)(F)F)c2)cc(C(=O)Nc2nc(C)cs2)n1` [Example 131, 6′-Methyl-5-trifluoromethyl-[3,4′]bipyridinyl-2′-carboxylic acid (4-methyl-thiazol-2-yl)-amide], the negative logarithm of the Ki (pKi) (commonly the negative decadic logarithm of the Ki, by convention in mol/L) was 6.71.

In the case of `Cc1cc(NC(=O)c2cc(-c3ccc(F)cc3)cc(C)n2)ccn1` [Example 28, 4-(4-Fluoro-phenyl)-6-methyl-pyridine-2-carboxylic acid (2-methyl-pyridin-4-yl)-amide], the pKi was 6.39.

Take `Cc1cc(-c2cc(F)cc(F)c2)nc(C(=O)Nc2ccnc(Cl)c2)n1` [Example 194, 4-(3,5-Difluoro-phenyl)-6-methyl-pyrimidine-2-carboxylic acid (2-chloro-pyridin-4-yl)-amide]: the negative-log Ki (pKi) is 6.66.

On to `Cc1cc(-c2cc(F)cc(F)c2)cc(C(=O)Nc2nc(CC#N)cs2)n1` [Example 163, 4-(3,5-Difluorophenyl)-6-methyl-pyridine-2-carboxylic acid (4-cyanomethyl-thiazol-2-yl)-amide], for which the pKi was 7.70.

Consider `Cc1cc(-c2cc(F)cc(F)c2)cc(C(=O)Nc2ncc(C)s2)n1` [Example 86, 4-(3,5-Difluorophenyl)-6-methyl-pyridine-2-carboxylic acid (5-methyl-thiazol-2-yl)-amide], for which the pKi is 6.03.

For `Cc1cc(NC(=O)c2cc(-c3ccnc(C#N)c3)cc(C)n2)ccn1` [Example 142, 2′-Cyano-6-methyl-[4,4′]bipyridinyl-2-carboxylic acid (2-methyl-pyridin-4-yl)-amide], the pKi is 6.74.

On to `Cc1cc(-c2ccc(F)cc2)cc(C(=O)Nc2ccnc(Cl)c2)n1` [Example 31, 4-(4-Fluoro-phenyl)-6-methyl-pyridine-2-carboxylic acid (2-chloro-pyridin-4-yl)-amide], for which the pKi was 6.21.

For the molecule `Cc1cc(-c2ccc(F)cc2)c(C)c(C(=O)Nc2ccn(C)n2)n1` [Example 118, 4-(4-Fluoro-phenyl)-3,6-dimethyl-pyridine-2-carboxylic acid (1-methyl-1H-pyrazol-3-yl)-amide], the negative-log Ki (pKi) is 6.15.

Turning to `Cc1cc(-c2ccc(F)cc2)cc(C(=O)Nc2ccn(C)n2)n1` [Example 29, 4-(4-Fluoro-phenyl)-6-methyl-pyridine-2-carboxylic acid (1-methyl-1H-pyrazol-3-yl)-amide], the pKi is 6.60.

Consider `CCOC(=O)Cn1ccc(NC(=O)c2cc(-c3cc(F)cc(F)c3)cc(C)n2)n1` [Example 170, (3-{[4-(3,5-Difluorophenyl)-6-methyl-pyridine-2-carbonyl]-amino}-pyrazol-1-yl)-acetic acid ethyl ester], for which the pKi is 6.24.

With `Cc1cc(-c2ccc(F)cc2)cc(C(=O)Nc2ccnc(C)n2)n1` [Example 32, 4-(4-Fluoro-phenyl)-6-methyl-pyridine-2-carboxylic acid (2-methyl-pyrimidin-4-yl)-amide], the pKi was 6.30.

As for `Cc1cc(-c2cc(F)cc(F)c2)cc(C(=O)Nc2nccc(Cl)n2)n1` [Example 167, 4-(3,5-Difluorophenyl)-6-methyl-pyridine-2-carboxylic acid (4-chloro-pyrimidin-2-yl)-amide], the pKi was 7.10.

For the molecule `COc1cncc(-c2cc(C)nc(C(=O)Nc3csc(C)n3)c2)c1` [Example 56, 5-Methoxy-6′-methyl-[3,4′]bipyridinyl-2′-carboxylic acid (2-methyl-thiazol-4-yl)-amide], the pKi was 7.54.

Consider `Cc1cc(-c2cc(C)nn2C)c(C)c(C(=O)Nc2csc(C)n2)n1` [Example 109, 4-(2,5-Dimethyl-2H-pyrazol-3-yl)-3,6-dimethyl-pyridine-2-carboxylic acid (2-methyl-thiazol-4-yl)-amide], for which the negative logarithm of the Ki (pKi) is 6.90.

For the molecule `Cc1cc(-c2ccc(F)cc2)cc(C(=O)Nc2ccc(F)cn2)n1` [Example 30, 4-(4-Fluoro-phenyl)-6-methyl-pyridine-2-carboxylic acid (5-fluoro-pyridin-2-yl)-amide], the pKi is 6.55.

`Cc1cc(-c2ccc(F)cc2)cc(C(=O)Nc2nc(C)cs2)n1` [Example 27, 4-(4-Fluoro-phenyl)-6-methyl-pyridine-2-carboxylic acid (4-methyl-thiazol-2-yl)-amide]: the pKi is 7.26.

The same assay, now with this note: competition with [3H]MPEP (2 nM), 1 h at 4° C., EBNA cell membranes, head prints no unit.
As for `Cc1cc(-c2ccccc2Cl)cc(C(=O)Nc2nc(C)cs2)n1` [Example 14, 4-(2-Chloro-phenyl)-6-methyl-pyridine-2-carboxylic acid (4-methyl-thiazol-2-yl)-amide], the pKi was 8.40.

As for `Cc1cc(-c2cccnc2)cc(C(=O)Nc2nc(C)cs2)n1` [Example 16, 6′-Methyl-[3,4′]bipyridinyl-2′-carboxylic acid (4-methyl-thiazol-2-yl)-amide], the negative logarithm of the Ki (pKi) was 7.77.

For `COc1ccc(-c2cc(C)nc(C(=O)Nc3nc(C)cs3)c2)cc1` [Example 9, 4-(4-Methoxy-phenyl)-6-methyl-pyridine-2-carboxylic acid (4-methyl-thiazol-2-yl)-amide], the pKi is 5.92.

Regarding `Cc1cc(-c2ccc(C#N)cc2)cc(C(=O)Nc2nc(C)cs2)n1` [Example 12, 4-(4-Cyano-phenyl)-6-methyl-pyridine-2-carboxylic acid (4-methyl-thiazol-2-yl)-amide], the pKi is 6.60.

For the molecule `Cc1cc(-c2cncnc2)cc(C(=O)Nc2nc(C)cs2)n1` [Example 18, 6-Methyl-4-pyrimidin-5-yl-pyridine-2-carboxylic acid (4-methyl-thiazol-2-yl)-amide], the pKi is 6.91.

Consider `COc1ccccc1-c1cc(C)nc(C(=O)Nc2nc(C)cs2)c1` [Example 13, 4-(2-Methoxy-phenyl)-6-methyl-pyridine-2-carboxylic acid (4-methyl-thiazol-2-yl)-amide], for which the pKi is 7.60.

For `Cc1cc(-c2cc(F)c(F)c(F)c2)cc(C(=O)Nc2nc(C)cs2)n1` [Example 11, 6-Methyl-4-(3,4,5-trifluoro-phenyl)-pyridine-2-carboxylic acid (4-methyl-thiazol-2-yl)-amide], the pKi was 8.00.

Take `Cc1cc(-c2ccc(Cl)nc2)cc(C(=O)Nc2nc(C)cs2)n1` [Example 4, 6-Chloro-6′-methyl-[3,4′]bipyridinyl-2′-carboxylic add (4-methyl-thiazol-2-yl)-amide]: the pKi is 6.61.
